Measured values taken from EP4620954A1, “CDK2 INHIBITOR, PREPARATION METHOD THEREFOR, AND USE THEREOF” (Shandong Luye Pharmaceutical Co., Ltd., priority 2022, dated 2024).
pIC50: −log10 of the molar value. Read-outs that look alike come from different tables or passages of the source.

Legend:
CDK2/Cyclin E1 = target: T1, CDK2/Cyclin E1 (Homo sapiens, UniProt P24941); test: CDK2 kinase antagonistic activity assay (TR-FRET); format: biochemical
T1 construct: purchased Invitrogen PV6296
Procedure: (§1) Compounds were dissolved in DMSO and serially diluted 3-fold to generate 11 concentrations. 100 nL of each compound was added to 384-well plates, followed by the addition of 5 µL of 2× CDK2/Cyclin E1 or CDK1/Cyclin B enzyme mixed solution. 5 µL of buffer (50 mM Hepes (pH 7.5), 10 mM MgCl2, 1 mM EDTA, 0.01% Brij-35, 2 mM DTT (prepared freshly)) was added to the complete inhibition control wells. The plates were centrifuged at 1000 rpm for 30 s and incubated at 23 °C for 15 min. Then, 5 µL of 2× MLight-MBP peptide (containing 10 µM ATP) was added to each well of each assay plate. The plates were centrifuged again at 1000 rpm for 30 s and incubated at 23 °C for 90 min.
After the incubation was completed, the reaction was stopped with a detection buffer containing 15 mM EDTA and 2 nM Eu-anti-P-MBP antibody. After centrifugation at 1000 rpm for about 1 min, the plates were incubated at 23 °C for 60 min and read on Perkin Elmer Envision. The TR-FRET ratio (value at 665 nm/value at 615 nm) was automatically calculated by Envision.
(§2) The IC50 values of the compounds were calculated using GraphPad Prism nonlinear fitting equation. Table 1. Kinase activity assay

CDK1/Cyclin B = target: T2, CDK1/Cyclin B (Homo sapiens, UniProt P06493); test: CDK1 kinase activity assay (TR-FRET); format: biochemical
T2 construct: purchased Invitrogen PR4768C
Procedure: as §1
After the incubation was completed, the reaction was stopped with a detection buffer containing 15 mM EDTA and 2 nM Eu-anti-P-MBP antibody. After centrifugation at 1000 rpm for about 1 min, the plates were incubated at 23 °C for 60 min and read on Perkin Elmer Envision.
as §2

HCT116 cells = test: Antagonistic effect assay against HCT116 cell proliferation (CellTitle-Glo); format: cell-based; conditions: Homo sapiens, HCT-116, 72 h treatment, 0.01-10.00 µM, read-out: Antiproliferative IC50
Procedure: Frozen HCT116 cells were rapidly transferred from liquid nitrogen to a 37 °C water bath and rapidly shaken for thawing. The cell suspension was transferred to a 15 mL centrifuge tube and centrifuged at 1500 rpm for 5 min, and the supernatant was discarded. The cell pellet was resuspended in RPMI-1640 complete medium (containing 10% fetal bovine serum and 1% penicillin/streptomycin) and transferred to a cell culture dish containing 10 mL of medium. The cells were cultured in an incubator at 37 °C/5% CO2. The cells were passaged after adhesion to the wall.
HCT116 cells in the logarithmic growth phase and in good condition were taken, digested with a trypsin solution, resuspended in a certain amount of RPMI-1640 complete medium to form a single-cell suspension, counted on a cell counting plate, and seeded into a 96-well white plate at a density of 800 cells/well. The plate was left to stand for 5 min and then incubated in an incubator at 37 °C/5% CO2 overnight. The next day, the cells were treated with the compound at different concentrations, and the control group was treated with DMSO at the corresponding concentration. The compound, dissolved in DMSO, was diluted in RPMI-1640 complete medium at a ratio of 1:1000 to obtain final concentrations of 10.00 µM, 3.33 µM, 1.11 µM, 0.37 µM, 0.12 µM, 0.04 µM, and 0.01 µM. Each group was set up with 3 replicate wells, and 100 µL of the treatment solution was added to each well. The plate was incubated in an incubator at 37 °C/5% CO2 for 72 h.
After 72 h of treatment, the CellTitle-Glo assay was performed. 100 µL of CellTitle-Glo solution was added to each well of the control and treatment groups. The plate was mixed on an oscillator for 2 min to induce cell lysis. The 96-well plate was incubated at room temperature for 10 min to stabilize the luminescence signal value. The luminescence signal was measured using a microplate reader. The DMSO-treated cell group was used as the control group, and 50% inhibitory concentration (IC50) was calculated according to the median effect equation as follows: [formula]
The IC50 values of the compounds were calculated using GraphPad Prism nonlinear fitting equation. Table 2. Results for the inhibitory effect of the compounds of the present disclosure on HCT116 cell proliferation

[1] = Permeability and transporter substrate evaluation, Caco-2 monolayer; format: in vitro ADME; conditions: human, Caco-2, 2.00 µM, 120 min
Procedure: Cell: Caco-2 cells Instrument: water purification equipment, ELGA LabWate; biosafety cabinet, Nuaire; thermostatic CO2 incubator, Thermo; microplate reader, PerkinElmer; LC-MS/MS, AB SCIEX. Method: The purpose of this study was to determine the two-way permeability of the compounds and evaluate whether they are effluxed and transported by P-glycoprotein (P-gp) using a Caco-2 monolayer cell model. In the experiment, Caco-2 cells were seeded into a 96-well cell plate and cultured for 24 consecutive days for the transport experiment. The compounds were administered bidirectionally at a concentration of 2.00 µM, with or without verapamil. After 120 min of incubation, the samples at the apical end A and the basal end B were collected. The content of the test samples in each sample was measured using the liquid chromatography-tandem mass spectrometry (LC-MS/MS) method. The apparent permeability coefficient and the efflux rate were calculated. Two experimental systems were used successively in this part, with the reference compound (PF-07104091) included. Table 4. Permeability test results

[2] = In-vitro liver microsomal stability, human; format: in vitro ADME; conditions: human liver microsomes 0.5 mg/mL, 1 µM, NADPH 1 mM, 37 °C
Procedure: (§3) Method: The metabolic stability of test substances was evaluated by using human, dog, and SD rat liver microsomes. The test substances were incubated with liver microsomes from different species and NADPH in a water bath at 37 °C. In the incubation system, the final concentration of the test or control sample was 1 µM, the final concentration of liver microsomes was 0.5 mg/mL, the final concentration of NADPH was 1 mM, and the final concentration of MgCl2 was 3 mM. At designated time points (5 min, 10 min, 20 min, 30 min, and 60 min), the reaction was stopped by adding a cold acetonitrile solution containing tolbutamide (at a concentration of 200 ng/mL) as an internal standard. For the 0-min sample, the stop solution was added before the addition of the NADPH working solution. Testosterone and dextromethorphan were used as positive control samples in the same conditions to assess the stability and reliability of the system. After sample pretreatment, semiquantitative analysis was performed using the LC-MS/MS method. The retention times of the analytes and internal standard, the acquisition of chromatograms and the integration of chromatograms were processed using software Analyst (AB Sciex, Framingham, Massachusetts, USA). The remaining percentage of the test samples after 60 min of incubation was calculated, and the test results are shown in Table 3. Table 3. Test data for the compounds of the present disclosure in human, dog, and rat liver microsomes

[3] = In-vitro liver microsomal stability, rat; format: in vitro ADME; conditions: SD rat liver microsomes 0.5 mg/mL, 1 µM, NADPH 1 mM, 37 °C
Procedure: as §3

[4] = TR-FRET, peptide mix containing 10 µM ATP, 90 min at 23 °C, read-out: CDK2/Cyclin E1 IC50
[5] = TR-FRET, peptide mix containing 10 µM ATP, 90 min at 23 °C, read-out: CDK1/Cyclin B1 IC50
[6] = Caco-2, Table 5 experimental system
[7] = Caco-2, Table 4 experimental system

T2 sequence (P06493 whole entry): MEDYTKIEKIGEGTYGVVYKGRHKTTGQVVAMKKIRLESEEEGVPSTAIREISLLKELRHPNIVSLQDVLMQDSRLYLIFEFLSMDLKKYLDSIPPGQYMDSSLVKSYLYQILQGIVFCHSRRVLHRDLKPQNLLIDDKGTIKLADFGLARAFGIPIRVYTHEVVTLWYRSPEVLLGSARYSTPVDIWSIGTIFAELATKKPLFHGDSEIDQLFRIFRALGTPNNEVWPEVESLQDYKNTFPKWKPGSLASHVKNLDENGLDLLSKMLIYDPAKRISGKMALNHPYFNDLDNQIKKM
T2 sequence (P14635 whole entry partner): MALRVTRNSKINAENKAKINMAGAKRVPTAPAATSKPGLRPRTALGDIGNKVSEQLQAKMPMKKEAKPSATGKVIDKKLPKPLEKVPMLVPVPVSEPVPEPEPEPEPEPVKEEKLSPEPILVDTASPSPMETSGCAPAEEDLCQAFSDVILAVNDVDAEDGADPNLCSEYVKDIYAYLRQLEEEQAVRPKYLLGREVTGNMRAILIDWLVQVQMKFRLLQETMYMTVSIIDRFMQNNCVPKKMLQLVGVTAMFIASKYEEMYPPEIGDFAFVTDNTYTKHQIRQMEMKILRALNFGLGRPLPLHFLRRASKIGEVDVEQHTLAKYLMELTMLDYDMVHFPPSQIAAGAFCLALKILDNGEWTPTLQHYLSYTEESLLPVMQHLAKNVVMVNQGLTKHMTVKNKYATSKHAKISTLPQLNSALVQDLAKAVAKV

Structure (SMILES)	pIC50 (CDK2/Cyclin E1; [4])	pIC50 (CDK1/Cyclin B; [5])	pIC50 (HCT116 cells)	also measured
C=C(C)c1ccncc1O[C@@H]1CC[C@H](c2cc(NC(=O)Cc3ccc(N4CCCC4=O)cc3)n[nH]2)C1 [Compound 26]	9.04	9.57	6.41	
CCN1CCN(Cc2ccc(Nc3cc([C@H]4CC[C@@H](OC(=O)NC(C)C)C4)[nH]n3)cc2)CC1 [Compound 137]	8.43	6.01	5.82	
CC(C)NC(=O)O[C@@H]1CC[C@H](c2cc(Nc3ccc(N4CCN(CC(F)F)CC4)cc3)n[nH]2)C1 [Compound 127]	7.90		5.01	
COCc1cc(C(=O)Nc2cnc([C@H]3CC[C@@H](OC(=O)NC(C)C)C3)s2)n(C)n1 [Compound 36]	< 6.00			
CC(C)NC(=O)O[C@@H]1CC[C@H](c2cc(Nc3ccc(CN4CCN(C)CC4)c(F)c3)n[nH]2)C1 [Compound 134]	8.67		5.95	pIC50 (CDK1/Cyclin B): 6.18; Papp A→B at 2 h, 2 µM [1, 6]: 7.08 ×10⁻⁶ cm/s; Papp B→A at 2 h, 2 µM [1, 6]: 23.4 ×10⁻⁶ cm/s; efflux ratio at 2 h, 2 µM [1, 6]: 3.3
CC(C)NC(=O)O[C@@H]1CC[C@H](c2cc(Nc3ccc(N4CCN(C)CC4)cn3)n[nH]2)C1 [Compound 49]	7.97		5.89	pIC50 (CDK1/Cyclin B): 6.14; Papp A→B at 2 h, 2 µM [1, 6]: 2.4 ×10⁻⁶ cm/s; Papp B→A at 2 h, 2 µM [1, 6]: 12.2 ×10⁻⁶ cm/s; efflux ratio at 2 h, 2 µM [1, 6]: 5.09
COCc1cc(C(=O)Nc2cc(C3CCC(OC(=O)NC(C)C)C3)[nH]n2)n(C)n1 (stereo not drawn) [PF-07104091, reference compound]				Papp A→B at 2 h, 2 µM [1, 7]: 0.106 ×10⁻⁶ cm/s; Papp B→A at 2 h, 2 µM [1, 7]: 25.5 ×10⁻⁶ cm/s; efflux ratio at 2 h, 2 µM [1, 7]: 241; Papp A→B at 2 h, 2 µM [1, 6]: 4.3 ×10⁻⁶ cm/s; Papp B→A at 2 h, 2 µM [1, 6]: 37 ×10⁻⁶ cm/s; efflux ratio at 2 h, 2 µM [1, 6]: 8.57
COCc1cc(C(=O)Nc2nnc([C@H]3CC[C@@H](OC(=O)NC(C)C)C3)s2)n(C)n1 [Compound 42]	< 6.00			
CC(C)NC(=O)O[C@@H]1CC[C@H](c2cc(NC3CCN(S(C)(=O)=O)CC3)n[nH]2)C1 [Compound 8]		5.51	< 5.00	
CC(C)NC(=O)O[C@@H]1CC[C@H](c2cc(NC(=O)c3cc(CS(=O)(=O)C4CC4)nn3C)n[nH]2)C1 [Compound 13]	8.47		5.67	pIC50 (CDK1/Cyclin B): 7.32; Remaining amount% at 60 min Human [2]: 80.0%; Remaining amount% at 60 min Rat [3]: 71.2%
CC1(C)CCN1C(=O)O[C@@H]1CC[C@H](c2cc(NC(=O)Cc3cccc(P(C)(C)=O)c3)n[nH]2)C1 [Compound 23]	8.30	5.73		
CC1(C)CCN1C(=O)O[C@@H]1CC[C@H](c2cc(NC(=O)Cc3ccc(N4CCCC4=O)cc3)n[nH]2)C1 [Compound 24]	8.59	6.23		Remaining amount% at 60 min Human [2]: 15.4%; Remaining amount% at 60 min Rat [3]: 22.8%
COCc1cc(C(=O)Nc2cc([C@H]3CC[C@@H](OC(=O)NC(C)(C)C#N)C3)[nH]n2)n(C)n1 [Compound 5]		6.07	< 5.00	
CC1(C)CCN1C(=O)O[C@@H]1CO[C@H](c2cc(NC(=O)Cc3cccc(P(C)(C)=O)c3)n[nH]2)C1 [Compound 30]	8.09			
CCS(=O)(=O)Cc1cc(C(=O)Nc2cc([C@H]3CC[C@@H](OC(=O)NC(C)C)C3)[nH]n2)n(C)n1 [Compound 12]	9.21	7.55	5.73	
C=C(C)c1ccncc1O[C@@H]1CC[C@H](c2cc(NC(=O)Cc3cccc(P(C)(C)=O)c3)n[nH]2)C1 [Compound 25]	8.51	7.95		
C=C(C)c1ccncc1O[C@@H]1CO[C@H](c2cc(NC(=O)Cc3cccc(P(C)(C)=O)c3)n[nH]2)C1 [Compound 31]	7.63	6.30		
COCc1cc(C(=O)Nc2[nH]nc3c2C[C@@H](OC(=O)NC(C)C)CC3)n(C)n1 [Compound 41]	< 6.00			
Cn1nc(CS(C)(=O)=O)cc1C(=O)Nc1cc([C@H]2CC[C@@H](OC(=O)N3CCC3(C)C)C2)[nH]n1 [Compound 16]	9.80		6.07	pIC50 (CDK1/Cyclin B): 8.51
CC(C)NC(=O)O[C@@H]1CC[C@H](c2cc(Nc3ccc(N4CCN(CC(F)(F)F)CC4)cc3)n[nH]2)C1 [Compound 128]			5.00	pIC50 (CDK2/Cyclin E1): 7.89
CC(C)NC(=O)O[C@@H]1CC[C@H](c2cc(Nc3ccc(CN4CCNCC4)cc3)n[nH]2)C1 [Compound 136]	8.26	5.99	5.07	
CC(C)NC(=O)O[C@@H]1CC[C@H](c2cc(Nc3ccc(C4CCN(C)CC4)cn3)n[nH]2)C1 [Compound 51]	8.16		5.45	pIC50 (CDK1/Cyclin B): 6.81
